Measurements as given in patent publication US11419869B2, “Dosage forms and regimens for amino acid compounds” (Pliant Therapeutics, Inc., priority 2019, dated 2022).

Target: recombinant human integrin αvβ6 (Homo sapiens (Human), UniProt P06756+P18564)
Assay: Solid Phase Integrin αvβ6 Binding Assay (Examples B1, B2)
Details: TGFβ1 LAP ligand, values given in four ranges, read-out: αvβ6 Inhibition IC50 (nM)-range
Method: (§1) Microplates were coated with recombinant human integrin αvβ6 (2 μg/mL) in PBS (100 μL/well 25° C., overnight). The coating solution was removed, washed with wash buffer (0.05% Tween 20; 0.5 mM MnCl2; in 1×TBS). The plate was blocked with 200 μL/well of Block Buffer (1% BSA; 5% sucrose; 0.5 mM MnCl2; in 1×TBS) at 37° C. for 2 h. Dilutions of testing compounds and recombinant TGFβ1 LAP (0.67 μg/mL) in binding buffer (0.05% BSA; 2.5% sucrose; 0.5 mM MnCl2; in 1×TBS) were added. The plate was incubated for 2 hours at 25° C., washed, and incubated for 1 hour with Biotin-Anti-hLAP. Bound antibody was detected by peroxidase-conjugated streptavidin. The IC50 values for testing compounds were calculated by four-parameter logistic regression.
The compounds tested were compound samples prepared according to procedures described in the Synthetic Examples section, with the stereochemical purity as indicated in the Examples.
as §1, with “A third series of exemplary compounds was selected for testing in the solid phase integrin αvβ6 binding assay. The compounds tested were compound samples prepared according to procedures described in the Synthetic Examples section, with the stereochemical purity as indicated in the Examples. As in Example B1, microplates were coated” for “Microplates were coated”, “calculated by a four-parameter logistic” for “calculated by four-parameter logistic”

Chain of recombinant human integrin αvβ6 (P06756 31-992): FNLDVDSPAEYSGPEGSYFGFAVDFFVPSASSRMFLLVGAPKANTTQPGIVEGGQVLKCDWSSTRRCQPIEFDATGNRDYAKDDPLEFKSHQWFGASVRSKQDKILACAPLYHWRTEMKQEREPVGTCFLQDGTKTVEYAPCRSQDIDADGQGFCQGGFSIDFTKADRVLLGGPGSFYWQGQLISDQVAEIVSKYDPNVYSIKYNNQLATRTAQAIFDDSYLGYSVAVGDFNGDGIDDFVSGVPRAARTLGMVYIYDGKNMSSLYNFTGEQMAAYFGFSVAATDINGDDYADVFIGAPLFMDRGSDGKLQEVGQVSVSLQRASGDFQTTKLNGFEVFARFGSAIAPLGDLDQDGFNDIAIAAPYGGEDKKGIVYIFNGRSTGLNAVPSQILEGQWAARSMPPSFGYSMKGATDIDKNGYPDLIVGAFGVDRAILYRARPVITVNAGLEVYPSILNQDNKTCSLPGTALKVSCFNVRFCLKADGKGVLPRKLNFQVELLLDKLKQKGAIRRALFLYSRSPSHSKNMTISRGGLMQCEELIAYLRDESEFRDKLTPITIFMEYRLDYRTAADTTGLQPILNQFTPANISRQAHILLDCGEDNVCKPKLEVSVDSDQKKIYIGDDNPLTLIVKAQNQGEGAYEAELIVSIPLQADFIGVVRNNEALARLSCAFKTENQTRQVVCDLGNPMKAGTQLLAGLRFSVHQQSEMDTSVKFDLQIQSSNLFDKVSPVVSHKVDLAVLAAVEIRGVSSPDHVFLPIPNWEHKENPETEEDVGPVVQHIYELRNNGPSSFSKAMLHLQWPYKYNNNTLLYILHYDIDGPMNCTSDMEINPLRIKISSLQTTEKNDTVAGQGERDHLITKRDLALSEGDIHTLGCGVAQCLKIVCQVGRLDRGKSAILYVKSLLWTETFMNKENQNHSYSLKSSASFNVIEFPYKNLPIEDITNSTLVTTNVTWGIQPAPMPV
Chain of recombinant human integrin αvβ6 (P18564 22-707): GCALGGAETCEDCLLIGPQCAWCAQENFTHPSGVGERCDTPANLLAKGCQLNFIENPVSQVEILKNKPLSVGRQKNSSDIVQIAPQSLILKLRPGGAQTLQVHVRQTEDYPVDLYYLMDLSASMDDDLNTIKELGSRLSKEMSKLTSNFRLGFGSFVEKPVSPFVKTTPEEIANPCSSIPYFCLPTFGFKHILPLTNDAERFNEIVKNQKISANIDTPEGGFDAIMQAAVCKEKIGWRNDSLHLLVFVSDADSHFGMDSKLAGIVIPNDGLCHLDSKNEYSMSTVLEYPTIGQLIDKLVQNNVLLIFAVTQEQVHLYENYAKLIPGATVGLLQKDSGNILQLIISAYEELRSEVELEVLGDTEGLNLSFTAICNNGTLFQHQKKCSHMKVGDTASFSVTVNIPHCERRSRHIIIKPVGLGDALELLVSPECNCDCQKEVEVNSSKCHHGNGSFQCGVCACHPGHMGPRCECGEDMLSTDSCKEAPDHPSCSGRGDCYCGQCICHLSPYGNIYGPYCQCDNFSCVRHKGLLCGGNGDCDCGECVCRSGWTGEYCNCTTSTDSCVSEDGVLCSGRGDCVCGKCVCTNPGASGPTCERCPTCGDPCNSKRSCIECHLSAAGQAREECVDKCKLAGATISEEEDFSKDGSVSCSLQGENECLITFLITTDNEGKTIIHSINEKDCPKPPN

| Compound | IC50 [nM] |
| --- | --- |
| COCCN(CCCCc1ccc2c(n1)NCCC2)CC[C@H](Nc1nccc2ccccc12)C(=O)O [Compound 34, (S)-2-(isoquinolin-1-ylamino)-4-((2-methoxyethyl) (4-(5,6,7,8-tetrahydro-1,8-naphthyridin-2-yl)butyl)amino) butanoic acid] | > 1000 |
| O=C(O)[C@H](CCN(CCCCc1ccc2c(n1)NCCC2)CCOC(F)F)Nc1ncnc2ccccc12 [Compound 35, (S)-4-((2-(difluoromethoxy)ethyl) (4-(5,6,7,8-tetrahydro-1,8-naphthyridin-2-yl)butyl)amino)-2-(quinazolin-4-ylamino) butanoic acid] | < 50 |
| COCCN(CCCCc1ccc2c(n1)NCCC2)CC[C@H](Nc1ccnc2ccccc12)C(=O)O [Compound 36, (S)-4-((2-methoxyethyl) (4-(5,6,7,8-tetrahydro-1,8-naphthyridin-2-yl)butyl)amino)-2-(quinolin-4-ylamino) butanoic acid] | > 1000 |
| Cc1nc(N[C@@H](CCN(CCCCc2ccc3c(n2)NCCC3)CCOc2ccc(F)cc2)C(=O)O)c2ccc(F)cc2n1 [Compound 40, (S)-2-((7-fluoro-2-methylquinazolin-4-yl)amino)-4-((2-(4-fluorophenoxy)ethyl) (4-(5,6,7,8-tetrahydro-1,8-naphthyridin-2-yl)butyl)amino) butanoic acid] | < 50 |
| Cc1nc(N[C@@H](CCN(CCCCc2ccc3c(n2)NCCC3)CCOC2CC2(F)F)C(=O)O)c2ccc(F)cc2n1 (stereo partly drawn) [Compound 42, (2S)-4-((2-(2,2-difluorocyclopropoxy)ethyl) (4-(5,6,7,8-tetrahydro-1,8-naphthyridin-2-yl)butyl)amino)-2-((7-fluoro-2-methylquinazolin-4-yl)amino) butanoic acid] | < 50 |
| COc1cccc2c(N[C@@H](CCN(CCCF)CCCCc3ccc4c(n3)NCCC4)C(=O)O)ncnc12 [Compound 43, (S)-4-((3-fluoropropyl) (4-(5,6,7,8-tetrahydro-1,8-naphthyridin-2-yl)butyl)amino)-2-((8-methoxyquinazolin-4-yl)amino) butanoic acid] | < 50 |
| COCCN(CCCCc1ccc2c(n1)NCCC2)CC[C@H](Nc1cc(-n2cccn2)ncn1)C(=O)O [Compound 44, (S)-2-((6-(1H-pyrazol-1-yl)pyrimidin-4-yl)amino)-4-((2-methoxyethyl) (4-(5,6,7,8-tetrahydro-1,8-naphthyridin-2-yl)butyl)amino) butanoic acid] | < 50 |
| COC[C@@H](F)CN(CCCCc1ccc2c(n1)NCCC2)CC[C@H](Nc1nc(C)nc2ccccc12)C(=O)O [Compound 46, (S)-4-(((S)-2-fluoro-3-methoxypropyl) (4-(5,6,7,8-tetrahydro-1,8-naphthyridin-2-yl)butyl)amino)-2-((2-methylquinazolin-4-yl)amino) butanoic acid] | < 50 |
| O=C(O)[C@H](CCN(CCCCc1ccc2c(n1)NCCC2)CCOc1cc(F)cc(F)c1)Nc1ncnc2ccccc12 [Compound 47, (S)-4-((2-(3,5-difluorophenoxy)ethyl) (4-(5,6,7,8-tetrahydro-1,8-naphthyridin-2-yl)butyl)amino)-2-(quinazolin-4-ylamino) butanoic acid] | < 50 |
| O=C(O)[C@H](CCN(CCCCc1ccc2c(n1)NCCC2)CCOc1ccccn1)Nc1ncnc2ccccc12 [Compound 49, (S)-4-((2-(pyridin-2-yloxy)ethyl) (4-(5,6,7,8-tetrahydro-1,8-naphthyridin-2-yl)butyl)amino)-2-(quinazolin-4-ylamino) butanoic acid] | < 50 |
| Cc1nc(N[C@@H](CCN(CCCCc2ccc3c(n2)NCCC3)CCOc2cccnc2C)C(=O)O)c2ccc(F)cc2n1 [Compound 53, (S)-2-((7-fluoro-2-methylquinazolin-4-yl)amino)-4-((2-((2-methylpyridin-3-yl)oxy)ethyl) (4-(5,6,7,8-tetrahydro-1,8-naphthyridin-2-yl)butyl)amino) butanoic acid] | < 50 |
| O=C(O)[C@H](CCN(CCCCc1ccc2c(n1)NCCC2)CCOc1cncc(F)c1)Nc1ncnc2ccccc12 [Compound 58, (S)-4-((2-((5-fluoropyridin-3-yl)oxy)ethyl) (4-(5,6,7,8-tetrahydro-1,8-naphthyridin-2-yl)butyl)amino)-2-(quinazolin-4-ylamino) butanoic acid] | < 50 |

Now from value to molecule:

| IC50 [nM] | Compound |
| --- | --- |
| < 50 | COCCN(CCCCc1ccc2c(n1)NCCC2)CC[C@H](Nc1ncnc2c(Cl)cccc12)C(=O)O [Compound 38, (S)-2-((8-chloroquinazolin-4-yl)amino)-4-((2-methoxyethyl) (4-(5,6,7,8-tetrahydro-1,8-naphthyridin-2-yl)butyl)amino) butanoic acid] |
| < 50 | O=C(O)[C@H](CCN(CCCCc1ccc2c(n1)NCCC2)CCOCC(F)(F)F)Nc1ncnc2ccccc12 [Compound 39, (S)-2-(quinazolin-4-ylamino)-4-((4-(5,6,7,8-tetrahydro-1,8-naphthyridin-2-yl)butyl) (2-(2,2,2-trifluoroethoxy)ethyl)amino) butanoic acid] |
| < 50 | COc1ccc2c(N[C@@H](CCN(CCCF)CCCCc3ccc4c(n3)NCCC4)C(=O)O)ncnc2c1 [Compound 41, (S)-4-((3-fluoropropyl) (4-(5,6,7,8-tetrahydro-1,8-naphthyridin-2-yl)butyl)amino)-2-((7-methoxyquinazolin-4-yl)amino) butanoic acid] |
| < 50 | Cc1cc(C)n(CCN(CCCCc2ccc3c(n2)NCCC3)CC[C@H](Nc2ncnc3ccccc23)C(=O)O)n1 [Compound 45, (S)-4-((2-(3,5-dimethyl-1H-pyrazol-1-yl)ethyl) (4-(5,6,7,8-tetrahydro-1,8-naphthyridin-2-yl)butyl)amino)-2-(quinazolin-4-ylamino) butanoic acid] |
| < 50 | O=C(O)[C@H](CCN(CCCCc1ccc2c(n1)NCCC2)CCOc1ccccn1)Nc1ncnc2c(Cl)cccc12 [Compound 48, (S)-2-((8-chloroquinazolin-4-yl)amino)-4-((2-(pyridin-2-yloxy)ethyl) (4-(5,6,7,8-tetrahydro-1,8-naphthyridin-2-yl)butyl)amino) butanoic acid] |
| < 50 | O=C(O)[C@H](CCN(CCCCc1ccc2c(n1)NCCC2)CCOCC(F)F)Nc1ncnc2ccccc12 [Compound 50, (S)-4-((2-(2,2-difluoroethoxy)ethyl) (4-(5,6,7,8-tetrahydro-1,8-naphthyridin-2-yl)butyl)amino)-2-(quinazolin-4-ylamino) butanoic acid] |
| < 50 | O=C(O)[C@H](CCN(CCCCc1ccc2c(n1)NCCC2)CCOCC(F)(F)F)Nc1ncnc2cccnc12 [Compound 51, (S)-2-(pyrido[3,2-d]pyrimidin-4-ylamino)-4-((4-(5,6,7,8-tetrahydro-1,8-naphthyridin-2-yl)butyl) (2-(2,2,2-trifluoroethoxy)ethyl)amino) butanoic acid] |
| < 50 | Cc1ncccc1OCCN(CCCCc1ccc2c(n1)NCCC2)CC[C@H](Nc1ncnc2ccccc12)C(=O)O [Compound 52, (S)-4-((2-((2-methylpyridin-3-yl)oxy)ethyl) (4-(5,6,7,8-tetrahydro-1,8-naphthyridin-2-yl)butyl)amino)-2-(quinazolin-4-ylamino) butanoic acid] |
| < 50 | Cc1ncccc1OCCN(CCCCc1ccc2c(n1)NCCC2)CC[C@H](Nc1ncnc2cccnc12)C(=O)O [Compound 54, (S)-4-((2-((2-methylpyridin-3-yl)oxy)ethyl) (4-(5,6,7,8-tetrahydro-1,8-naphthyridin-2-yl)butyl)amino)-2-(pyrido[3,2-d]pyrimidin-4-ylamino) butanoic acid] |
| < 50 | CCOCCN(CCCCc1ccc2c(n1)NCCC2)CC[C@H](Nc1ncnc2ccccc12)C(=O)O [Compound 55, (S)-4-((2-ethoxyethyl) (4-(5,6,7,8-tetrahydro-1,8-naphthyridin-2-yl)butyl)amino)-2-(quinazolin-4-ylamino) butanoic acid] |
| < 50 | Cc1ccc(OCCN(CCCCc2ccc3c(n2)NCCC3)CC[C@H](Nc2nc(C)nc3cc(F)ccc23)C(=O)O)cn1 [Compound 56, (S)-2-((7-fluoro-2-methylquinazolin-4-yl)amino)-4-((2-((6-methylpyridin-3-yl)oxy)ethyl) (4-(5,6,7,8-tetrahydro-1,8-naphthyridin-2-yl)butyl)amino) butanoic acid] |
| < 50 | Cc1ccc(OCCN(CCCCc2ccc3c(n2)NCCC3)CC[C@H](Nc2ncnc3cccnc23)C(=O)O)cn1 [Compound 57, (S)-4-((2-((6-methylpyridin-3-yl)oxy)ethyl) (4-(5,6,7,8-tetrahydro-1,8-naphthyridin-2-yl)butyl)amino)-2-(pyrido[3,2-d]pyrimidin-4-ylamino) butanoic acid] |
